Each structure is given as a SMILES string. Where two headings read alike, the source gives them in different places.

Test in all cases: Synergistic Growth Inhibition Assay (MIC and FIC index, 96-well, resazurin)
What all share (assay type): cell-based
A general note: The colour change of resazurin is a common sign of viable cells or microbes.

One assay concerns Alternaria solani. Particulars: Alternaria solani, […], Compound B alone, 7 days incubation, read-out: MIC (B). The protocol:
In some embodiments, the synergistic action between the pesticidal active ingredient, and the at least one C6-C10 (or alternatively C11 or C12) saturated or unsaturated aliphatic acid components of the pesticidal compositions according to embodiments of the present disclosure was tested using a Synergistic Growth Inhibition Assay, which is derived from and related to a checkerboard assay as is known in the art for testing of combinations of antimicrobial agents. In the Synergistic Growth Inhibition Assay used in accordance with some embodiments of the present disclosure, multiple dilutions of combinations of pesticidal active ingredient and at least one C6-C10 saturated or unsaturated aliphatic acid agents are tested in individual cells for inhibitory activity against a target pest or pathogenic organism. In one such embodiment, the combinations of pesticidal active ingredient and C6-C10 (or alternatively C11 or C12) saturated or unsaturated aliphatic acid agents may preferably be tested in decreasing concentrations. In a further such embodiment, the combinations of pesticidal active ingredient and C6-C10 (or alternatively C11 or C12) saturated or unsaturated aliphatic acid agents may be tested in increasing concentrations. These multiple combinations of the pesticidal active ingredient and at least one C6-C10 (or alternatively C11 or C12) saturated or unsaturated aliphatic acid agents may be prepared in 96-well microtiter plates. In one such embodiment, the Synergistic Growth Inhibition Assay then comprises rows which each contain progressively decreasing concentrations of the pesticidal active ingredient and one or more C6-C10 (or alternatively C11 or C12) saturated or unsaturated aliphatic acid agents to test for the MIC of the agents in combination at which growth of the target pest or pathogen is inhibited. Thus, each well of the microtiter plate is a unique combination of the two agents, at which inhibitory efficacy of the combination against the target pest or pathogen can be determined.
In one embodiment according to the present disclosure, for each row of microtiter cells in the Synergistic Growth Inhibition Assay, the FIC index is calculated from the lowest concentration of the pesticidal active ingredient and one or more C6-C10 saturated or unsaturated aliphatic acid agents necessary to inhibit growth of a target pest or pathogen. The FIC of each component is derived by dividing the concentration of the agent present in that well of the microtiter plate by the minimal inhibitory concentration (MIC) needed of that agent alone to inhibit growth of the target pest or pathogen. The FIC index is then the sum of these values for both agents in that well of the microtiter plate. […] Fractional inhibitory concentration indices may then used as measure of synergy. […] When the FIC index is equal to 1, the combination is additive.
Then, serial dilutions of these initial compositions in successive wells in the row of the microtiter plate were used to assay the pesticidal composition under the same conditions to determine the concentration of the composition combining the two agents corresponding to the microtiter well in which growth inhibition of the target pest or organism ceases.
A culture of the representative fungal pathogen, namely Fusarium oxysporum, Botrytis cinerea, or Sclerotinia sclerotiorum, for example, is grown to exponential phase in potato dextrose broth (PDB).

Another assay concerns Fusarium oxysporum. Particulars: Fusarium oxysporum, Compound B alone. In a few lines:
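Checkerboard dilutions of pesticidal active plus C6–C10 (or C11/C12) aliphatic acid in 96-well plates; growth scored by resazurin colour change, optionally visual.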

In another assay the test system is Sclerotinia sclerotiorum. Particulars: Sclerotinia sclerotiorum, […], Compound B alone, read-out: MIC (B). In a few lines:
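Checkerboard of pesticidal active ingredient combined with C6–C10 (or C11/C12) aliphatic acids in serial dilutions against Sclerotinia sclerotiorum. Growth scored by resazurin colour change plus visual inspection; FIC index is the sum of each agent's concentration divided by its MIC alone, with 1 indicating additivity.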

The next assay has as its system Botrytis cinerea. Particulars: Botrytis cinerea, 48 h, Compound B alone, 48 hours incubation, read-out: MIC (B). In a few lines:
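Checkerboard microdilution of pesticidal active ingredient combined with C6–C10 (or C11/C12) aliphatic acid against Botrytis cinerea, with growth read by resazurin colour change plus visual check. FIC index = sum of each agent's concentration in the inhibiting well divided by its MIC alone; 1 denotes additivity.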

Where [1] appears, read: 48 h, Table 28, 48 hours incubation, read-out: MIC (B).
The mark [2] stands for this setting: 48 h, Table 30, 48 hours incubation, read-out: MIC (B).
Where [3] appears, read: 48 h, Table 32, 48 hours incubation, read-out: MIC (B).
The mark [4] stands for this setting: 48 h, Table 15B, incubation 48 hours, read-out: MIC (B).
[5] abbreviates: 48 h, Table 27, 48 hours incubation, read-out: MIC (B).
Where [6] appears, read: 48 h, Table 29, 48 hours incubation, read-out: MIC (B).
[7] abbreviates: 48 h, Table 31, 48 hours incubation, read-out: MIC (B).

By MIC is commonly meant the smallest concentration in the dilution series that meets the test's criterion for growth inhibition. As to `CCCCCC/C=C/C(=O)O` [Trans-2-nonenoic acid], the minimum inhibitory concentration (MIC) in the assay with Alternaria solani stood at 156 µg/mL; in the assay with Alternaria solani (Table 60) it was 78.1 µg/mL; in the assay on Fusarium oxysporum (setting [1]), 156 µg/mL; with Fusarium oxysporum (setting [2]), 312 µg/mL; in the assay with Fusarium oxysporum (setting [3]) it was 312 µg/mL; in the assay on Sclerotinia sclerotiorum (7 days incubation), 78.1 µg/mL. The MIC with Sclerotinia sclerotiorum (Table 33, 7 days incubation) stood at 19.5 µg/mL; in the assay on Sclerotinia sclerotiorum (Table 36, 7 days incubation), 39.1 µg/mL; in the assay with Sclerotinia sclerotiorum (Table 37, 7 days incubation) it was 78.1 µg/mL; in the assay on Sclerotinia sclerotiorum (Table 38, 7 days incubation), 39.1 µg/mL; in the assay on Sclerotinia sclerotiorum (Table 39, 7 days incubation), 19.5 µg/mL; in the assay with Sclerotinia sclerotiorum (Table 40, 7 days incubation), 19.5 µg/mL. For the same molecule, the MIC in the assay on Sclerotinia sclerotiorum (Table 41, 7 days incubation) was found to be 39.1 µg/mL; in the assay on Botrytis cinerea (Table 43), 78.1 µg/mL; in the assay on Botrytis cinerea (Table 44), 39.1 µg/mL; in the assay on Botrytis cinerea (Table 45), 39.1 µg/mL; in the assay with Botrytis cinerea (Table 46), 19.5 µg/mL; in the assay with Botrytis cinerea (Table 47), 78.1 µg/mL. Besides, the MIC with Botrytis cinerea (Table 49) and in the assay on Botrytis cinerea (Table 56) was 156 µg/mL each time.

For the molecule `CCCCCCCC/C=C/C(=O)O` [Trans-2-undecenoic acid], the MIC worked out at 156 µg/mL in the assay with Alternaria solani (Table 60); 156 µg/mL with Fusarium oxysporum (setting [3]); 19.5 µg/mL with Sclerotinia sclerotiorum (Table 33, 7 days incubation); 39.1 µg/mL in the assay with Sclerotinia sclerotiorum (Table 38, 7 days incubation); 39.1 µg/mL with Sclerotinia sclerotiorum (Table 39, 7 days incubation); 39.1 µg/mL with Sclerotinia sclerotiorum (Table 41, 7 days incubation). The MIC in the assay on Botrytis cinerea (Table 43) was 156 µg/mL; in the assay on Botrytis cinerea (Table 44) it was 78.1 µg/mL; with Botrytis cinerea (Table 45), 78.1 µg/mL; in the assay with Botrytis cinerea (Table 47) it was 78.1 µg/mL; in the assay with Botrytis cinerea (Table 48), 78.1 µg/mL; in the assay with Botrytis cinerea (Table 49), 78.1 µg/mL. Moreover, the MIC in the assay with Botrytis cinerea (Table 50) was 39.1 µg/mL; with Botrytis cinerea (Table 56), 39.1 µg/mL; in the assay with Botrytis cinerea (Table 58), 156 µg/mL.

Regarding `CCCC(O)CC(=O)O` (centres unmarked) [3-Hydroxyhexanoic acid, 3-hydroxyhexanoic acid], the MIC with Alternaria solani came out at 2500 µg/mL; in the assay on Fusarium oxysporum (setting [4]), 2500 µg/mL; in the assay with Sclerotinia sclerotiorum (Table 16, incubation 7 days), 5000 µg/mL; in the assay on Sclerotinia sclerotiorum (Table 20B, incubation 7 days), 2500 µg/mL; in the assay with Botrytis cinerea (Table 51) it was 2500 µg/mL; in the assay with Botrytis cinerea (Table 56), 5000 µg/mL. Also, the minimal inhibitory concentration (MIC) in the assay on Botrytis cinerea (Table 59) was 2500 µg/mL.

As for `CCCCCC=CCC(=O)O` [3-Nonenoic acid], the MIC in the assay with Alternaria solani (Table 60) was found to be 78.1 µg/mL; in the assay with Fusarium oxysporum (setting [3]), 156 µg/mL; in the assay with Sclerotinia sclerotiorum (7 days incubation) it was 78.1 µg/mL; with Sclerotinia sclerotiorum (Table 33, 7 days incubation) it was 19.5 µg/mL; with Sclerotinia sclerotiorum (Table 35, 7 days incubation), 39.1 µg/mL; in the assay on Sclerotinia sclerotiorum (Table 36, 7 days incubation), 39.1 µg/mL. Moreover, the MIC in the assay with Sclerotinia sclerotiorum (Table 37, 7 days incubation) was determined as 78.1 µg/mL; in the assay with Sclerotinia sclerotiorum (Table 38, 7 days incubation), 78.1 µg/mL; in the assay on Sclerotinia sclerotiorum (Table 41, 7 days incubation) it was 39.1 µg/mL; in the assay on Botrytis cinerea (Table 43) it was 78.1 µg/mL; with Botrytis cinerea (Table 44) it was 78.1 µg/mL; in the assay on Botrytis cinerea (Table 45), 78.1 µg/mL. Also, the MIC with Botrytis cinerea (Table 47), in the assay on Botrytis cinerea (Table 48), with Botrytis cinerea (Table 49) and with Botrytis cinerea (Table 54) was 78.1 µg/mL in each case.

Consider `CC(O)CC(=O)O` (centres unmarked) [3-Hydroxybutyric acid, 3-hydroxybutyric acid], for which the MIC with Alternaria solani amounted to 5000 µg/mL; in the assay with Fusarium oxysporum (48 h, Table 10, incubation 48 hours, read-out: MIC (B)), 10000 µg/mL; in the assay with Fusarium oxysporum (setting [4]), 10000 µg/mL; in the assay on Sclerotinia sclerotiorum (Table 16, incubation 7 days) it was 10000 µg/mL; in the assay with Sclerotinia sclerotiorum (Table 20B, incubation 7 days), 5000 µg/mL; in the assay with Botrytis cinerea (Table 51), 10000 µg/mL. The values for the MIC in the assay with Botrytis cinerea (Table 56) and in the assay with Botrytis cinerea (Table 59) were 10000 µg/mL and 5000 µg/mL, respectively.

On to `CCCCCCC=CCC(=O)O` [3-Decenoic acid, 3-decenoic acid], for which the minimum inhibitory concentration (MIC) was found to be 78.1 µg/mL in the assay on Alternaria solani (Table 60); 73.4 µg/mL with Fusarium oxysporum (24 h, Table 3, 24 hour incubation, read-out: MIC(B)); 73.4 µg/mL in the assay on Fusarium oxysporum (24 h, Table 4, 24 hour incubation, read-out: MIC (B)); 312 µg/mL in the assay on Fusarium oxysporum (setting [5]); 78.1 µg/mL in the assay with Fusarium oxysporum (setting [1]); 156 µg/mL in the assay on Fusarium oxysporum (setting [6]). Moreover, the minimal inhibitory concentration (MIC) with Fusarium oxysporum (setting [7]) was 78.1 µg/mL; in the assay with Sclerotinia sclerotiorum (7 days incubation) it was 156 µg/mL; with Sclerotinia sclerotiorum (Table 33, 7 days incubation), 39.1 µg/mL; with Sclerotinia sclerotiorum (Table 35, 7 days incubation), 39.1 µg/mL; in the assay on Sclerotinia sclerotiorum (Table 38, 7 days incubation), 39.1 µg/mL; in the assay with Sclerotinia sclerotiorum (Table 40, 7 days incubation), 78.1 µg/mL. Also, the minimum inhibitory concentration (MIC) in the assay on Sclerotinia sclerotiorum (Table 41, 7 days incubation) was determined as 78.1 µg/mL; with Botrytis cinerea (Table 43), 78.1 µg/mL; in the assay with Botrytis cinerea (Table 44) it was 78.1 µg/mL; in the assay with Botrytis cinerea (Table 45), 78.1 µg/mL; with Botrytis cinerea (Table 47), 78.1 µg/mL; with Botrytis cinerea (Table 49), 78.1 µg/mL. In addition, the MIC with Botrytis cinerea (Table 50) came out at 78.1 µg/mL; in the assay on Botrytis cinerea (Table 53), 39.1 µg/mL; in the assay with Botrytis cinerea (Table 54), 39.1 µg/mL; in the assay with Botrytis cinerea (Table 56), 78.1 µg/mL; in the assay with Botrytis cinerea (Table 58) it was 156 µg/mL.

As to `C=CCCCC(=O)O` [5-Hexenoic acid], the MIC amounted to 312 µg/mL in the assay on Alternaria solani (Table 60); 312 µg/mL with Fusarium oxysporum (setting [5]); 156 µg/mL in the assay on Sclerotinia sclerotiorum (Table 33, 7 days incubation); 156 µg/mL with Sclerotinia sclerotiorum (Table 35, 7 days incubation); 156 µg/mL in the assay on Botrytis cinerea (Table 43); 78.1 µg/mL with Botrytis cinerea (Table 44). Also, the MIC with Botrytis cinerea (Table 45) came out at 312 µg/mL; in the assay on Botrytis cinerea (Table 50), 156 µg/mL; in the assay with Botrytis cinerea (Table 54), 312 µg/mL.

`CCCC=CCC(=O)O` [3-Heptenoic acid]: the MIC came out at 312 µg/mL in the assay with Alternaria solani (Table 60); 156 µg/mL in the assay with Fusarium oxysporum (setting [5]); 156 µg/mL in the assay on Fusarium oxysporum (setting [1]); 156 µg/mL in the assay on Fusarium oxysporum (setting [6]); 156 µg/mL in the assay on Fusarium oxysporum (setting [2]); 156 µg/mL in the assay on Fusarium oxysporum (setting [7]). Besides, the MIC in the assay with Sclerotinia sclerotiorum (7 days incubation) was 156 µg/mL; in the assay with Sclerotinia sclerotiorum (Table 33, 7 days incubation), 78.1 µg/mL; with Sclerotinia sclerotiorum (Table 35, 7 days incubation) it was 78.1 µg/mL; with Sclerotinia sclerotiorum (Table 39, 7 days incubation), 78.1 µg/mL; in the assay on Sclerotinia sclerotiorum (Table 41, 7 days incubation), 78.1 µg/mL; in the assay with Botrytis cinerea (Table 43), 78.1 µg/mL. Further, the MIC with Botrytis cinerea (Table 44), in the assay with Botrytis cinerea (Table 47) and in the assay with Botrytis cinerea (Table 49) was 78.1 µg/mL throughout.

The record behind these values is US11839212B2, “Synergistic pesticidal compositions and methods for delivery of insecticidal active ingredients” (0903608 B.C. Ltd., priority 2018, dated 2023).
